# Target: T1, human TGR5 (Homo sapiens, UniProt Q8TDU6)
# T1 construct: expressed in transfected cells; host or cells: HEK293
# T1 sequence (Q8TDU6 1-330): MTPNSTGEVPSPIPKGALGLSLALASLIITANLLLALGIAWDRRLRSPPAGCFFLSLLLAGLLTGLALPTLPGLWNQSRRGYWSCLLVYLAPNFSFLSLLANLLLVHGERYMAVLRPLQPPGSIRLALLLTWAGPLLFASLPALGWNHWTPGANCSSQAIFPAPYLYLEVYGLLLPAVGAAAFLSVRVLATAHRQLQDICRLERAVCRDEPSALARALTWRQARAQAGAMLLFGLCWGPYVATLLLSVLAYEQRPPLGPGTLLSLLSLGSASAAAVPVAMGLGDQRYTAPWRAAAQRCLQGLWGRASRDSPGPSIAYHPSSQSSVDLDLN
# Test: Cell-based TGR5 assay (cAMP generation, HTRF)
# Conditions: HEK293 cells stably transfected with human TGR5; cAMP by HTRF; 30 minutes at 37° C.; read-out: pEC50 Human TGR5 (converted)
# How it was run: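 Read-out was HTRF detection of cAMP, converted to concentration via a standard curve and fitted (3-parameter logistic) for pEC50 and maximal response. Agonist stimulation used HEK293 cells stably transfected with human TGR5, incubated 30 min at 37° C in IBMX-containing buffer at 0.05 nM to 10 μM compound.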
row,Compound,EC50 [nM]
1,"O=C(NCCCC(CO)c1ccc(Cl)c(CNC2(c3cnccc3-c3ccccc3OC3CC3)CC2)c1)NC[C@H](O)[C@@H](O)[C@H](O)[C@H](O)CO (stereo partly drawn) [Compound I-384, 1-(4-{4-chloro-3-[({1-[4-(2-cyclopropoxyphenyl)pyridin-3-yl]cyclopropyl}amino)methyl]phenyl}-5-hydroxypentyl)-3-[(2S,3R,4R,5R)-2,3,4,5,6-pentahydroxyhexyl]urea]",126 to 1000
2,"Cc1ccc(C(CO)CCCNC(=O)[C@@H](O)[C@@H](O)[C@H](O)[C@@H](O)CO)cc1CNC1(c2cnccc2-c2ccccc2OC2CC2)CC1 (stereo partly drawn) [Compound I-386, (2S,3S,4R,5S)-N-(4-{3-[({1-[4-(2-cyclopropoxyphenyl)pyridin-3-yl]cyclopropyl}amino)methyl]-4-methylphenyl}-5-hydroxypentyl)-2,3,4,5,6-pentahydroxyhexanamide]",< 100
3,"Cc1ccc(C(CO)CCCNC(=O)NC[C@H](O)[C@@H](O)[C@H](O)[C@H](O)CO)cc1CNC1(c2cnccc2-c2ccccc2OC2CC2)CC1 (stereo partly drawn) [Compound I-387, 1-(4-{3-[({1-[4-(2-cyclopropoxyphenyl)pyridin-3-yl]cyclopropyl}amino)methyl]-4-methylphenyl}-5-hydroxypentyl)-3-[(2S,3R,4R,5R)-2,3,4,5,6-pentahydroxyhexyl]urea]",126 to 1000
4,"CN(CCCCNC(=O)NC[C@H](O)[C@@H](O)[C@H](O)[C@H](O)CO)S(=O)(=O)c1cc(CNC2(c3cnccc3-c3ccccc3OC3CC3)CC2)c(Cl)cc1Cl [Compound I-392, 1-[4-(N-methyl[2,4-dichloro-5-[([1-[4-(2-cyclopropoxyphenyl)pyridin-3-yl]cyclopropyl]amino)methyl]benzene]sulfonamido)butyl]-3-[(2S,3R,4R,5R)-2,3,4,5,6-pentahydroxyhexyl]urea]",< 100
5,"CN(C)S(=O)(=O)c1ccc(Cl)c(COC2(c3cnccc3-c3ccccc3OC3CC3)CC2)c1 [Compound I-393, 4-chloro-3-([1-[4-(2-cyclopropoxyphenyl)pyridin-3-yl]cyclopropoxy]methyl)-N,N-dimethylbenzene-1-sulfonamide]",< 100
6,"CNS(=O)(=O)c1ccc(Cl)c(COC2(c3cnccc3-c3ccccc3OC3CC3)CC2)c1 [Compound I-394, 4-chloro-3-({1-[4-(2-cyclopropoxyphenyl)pyridin-3-yl]cyclopropoxy}methyl)-N-methylbenzene-1-sulfonamide]",< 100
7,"CN(C[C@H](O)[C@@H](O)[C@H](O)[C@H](O)CO)S(=O)(=O)c1ccc(Cl)c(COC2(c3cnccc3-c3ccccc3OC3CC3)CC2)c1 [Compound I-398, (2S,3R,4R,5R)-S-[4-chloro-3-({1-[4-(2-cyclopropoxyphenyl)pyridin-3-yl]cyclopropoxy}methyl)phenyl]-2,3,4,5,6-pentahydroxy-N-methylhexane-1-sulfonamido]",< 100
8,"NCCOCCNS(=O)(=O)c1ccc(Cl)c(COC2(c3cnccc3-c3ccccc3OC3CC3)CC2)c1 [Compound I-399, N-[2-(2-aminoethoxy)ethyl]-4-chloro-3-({1-[4-(2-cyclopropoxyphenyl)pyridin-3-yl]cyclopropoxy}methyl)benzene-1-sulfonamide]",126 to 1000
9,"CN(CCOCCN)S(=O)(=O)c1ccc(Cl)c(COC2(c3cnccc3-c3ccccc3OC3CC3)CC2)c1 [Compound I-400, N-[2-(2-aminoethoxy)ethyl]-4-chloro-3-({1-[4-(2-cyclopropoxyphenyl)pyridin-3-yl]cyclopropoxy}methyl)-N-methylbenzene-1-sulfonamide]",126 to 1000
10,"CCN(CCOCCNC(=O)NC[C@H](O)[C@@H](O)[C@H](O)[C@H](O)CO)S(=O)(=O)c1ccc(Cl)c(COC2(c3cnccc3-c3ccccc3OC3CC3)CC2)c1 [Compound I-411, 1-(2-{2-[N-ethyl4-chloro-3-({1-[4-(2-cyclopropoxyphenyl)pyridin-3-yl]cyclopropoxy}methyl)benzenesulfonamido]ethoxy}ethyl)-3-[(2S,3R,4R,5R)-2,3,4,5,6-pentahydroxyhexyl]urea]",< 100
11,"COCCN(CCCCCNC(=O)NC[C@H](O)[C@@H](O)[C@H](O)[C@H](O)CO)S(=O)(=O)c1ccc(Cl)c(COC2(c3cnccc3-c3ccccc3OC3CC3)CC2)c1 [Compound I-412, 1-{5-[N-(2-methoxyethyl)4-chloro-3-({1-[4-(2-cyclopropoxyphenyl)pyridin-3-yl]cyclopropoxy}methyl)benzenesulfonamido]pentyl}-3-[(2S,3R,4R,5R)-2,3,4,5,6-pentahydroxyhexyl]urea]",< 100
12,"COCCN(CCCCCNC(=O)N[C@@H](CO)[C@@H](O)[C@H](O)[C@H](O)CO)S(=O)(=O)c1ccc(Cl)c(COC2(c3cnccc3-c3ccccc3OC3CC3)CC2)c1 [Compound I-413, 1-{5-[N-(2-methoxyethyl)4-chloro-3-({1-[4-(2-cyclopropoxyphenyl)pyridin-3-yl]cyclopropoxy}methyl)benzenesulfonamido]pentyl}-3-[(2S,3R,4S,5R)-1,3,4,5,6-pentahydroxyhexan-2-yl]urea]",< 100
13,"CCN(CCOCCNC(=O)N[C@@H](CO)[C@@H](O)[C@H](O)[C@H](O)CO)S(=O)(=O)c1ccc(Cl)c(COC2(c3cnccc3-c3ccccc3OC3CC3)CC2)c1 [Compound I-415, 1-(2-{2-[N-ethyl4-chloro-3-({1-[4-(2-cyclopropoxyphenyl)pyridin-3-yl]cyclopropoxy}methyl)benzenesulfonamido]ethoxy}ethyl)-3-[(2S,3R,4S,5R)-1,3,4,5,6-pentahydroxyhexan-2-yl]urea]",< 100
14,"COCCN(CCCCNC(=O)N[C@@H](CO)[C@@H](O)[C@H](O)[C@H](O)CO)S(=O)(=O)c1ccc(Cl)c(COC2(c3cnccc3-c3ccccc3OC3CC3)CC2)c1 [Compound I-416, 1-{4-[N-(2-methoxyethyl)4-chloro-3-({1-[4-(2-cyclopropoxyphenyl)pyridin-3-yl]cyclopropoxy}methyl)benzenesulfonamido]butyl}-3-[(2S,3R,4S,5R)-1,3,4,5,6-pentahydroxyhexan-2-yl]urea]",< 100

# Results, then the compound that gave them:
row,EC50 [nM],Compound
1,< 100,"C=C(CCCNC(=O)NC[C@H](O)[C@@H](O)[C@H](O)[C@H](O)CO)c1ccc(Cl)c(CNC2(c3cnccc3-c3ccccc3OC3CC3)CC2)c1 [Compound I-383, 1-(4-{4-chloro-3-[({1-[4-(2-cyclopropoxyphenyl)pyridin-3-yl]cyclopropyl}amino)methyl]phenyl}pent-4-en-1-yl)-3-[(2S,3R,4R,5R)-2,3,4,5,6-pentahydroxyhexyl]urea]"
2,< 100,"O=C(NCCCC1(c2ccc(Cl)c(CNC3(c4cnccc4-c4ccccc4OC4CC4)CC3)c2)CC1)NC[C@H](O)[C@@H](O)[C@H](O)[C@H](O)CO [Compound I-385, 1-[3-(1-{4-chloro-3-[({1-[4-(2-cyclopropoxyphenyl)pyridin-3-yl]cyclopropyl}amino)methyl]phenyl}cyclopropyl)propyl]-3-[(2S,3R,4R,5R)-2,3,4,5,6-pentahydroxyhexyl]urea]"
3,< 100,"CCN(CCCCNC(=O)NC[C@H](O)[C@@H](O)[C@H](O)[C@H](O)CO)S(=O)(=O)c1ccc(Cl)c(COC2(c3cnccc3-c3ccccc3OC3CC3)CC2)c1 [Compound I-390, 4-chloro-3-((1-(4-(2-cyclopropoxyphenyl)pyridin-3-yl)cyclopropoxy)methyl)-N-ethyl-N-(4-(3-((2S,3R,4R,5R)-2,3,4,5,6-pentahydroxyhexyl)ureido)butyl) benzenesulfonamide]"
4,< 100,"CC(C)N(CCCCNC(=O)NC[C@H](O)[C@@H](O)[C@H](O)[C@H](O)CO)S(=O)(=O)c1ccc(Cl)c(COC2(c3cnccc3-c3ccccc3OC3CC3)CC2)c1 [Compound I-391, 3-[(2S,3R,4R,5R)-2,3,4,5,6-pentahydroxyhexyl]-1-[4-[N-(propan-2-yl)[4-chloro-3-([1-[4-(2-cyclopropoxyphenyl)pyridin-3-yl]cyclopropoxy]methyl)benzene]sulfonamido]butyl]urea]"
5,< 100,"O=S(=O)(c1ccc(Cl)c(COC2(c3cnccc3-c3ccccc3OC3CC3)CC2)c1)N1CCCC1 [Compound I-395, 3-(1-{[2-chloro-5-(pyrrolidine-1-sulfonyl)phenyl]methoxy}cyclopropyl)-4-(2-cyclopropoxyphenyl)pyridine]"
6,< 100,"O=S(=O)(c1ccc(Cl)c(COC2(c3cnccc3-c3ccccc3OC3CC3)CC2)c1)N1CCCCC1 [Compound I-396, 3-(1-{[2-chloro-5-(piperidine-1-sulfonyl)phenyl]methoxy}cyclopropyl)-4-(2-cyclopropoxyphenyl)pyridine]"
7,126 to 1000,"O=S(=O)(NC[C@H](O)[C@@H](O)[C@H](O)[C@H](O)CO)c1ccc(Cl)c(COC2(c3cnccc3-c3ccccc3OC3CC3)CC2)c1 [Compound I-397, (2S,3R,4R,5R)-S-[4-chloro-3-({1-[4-(2-cyclopropoxyphenyl)pyridin-3-yl]cyclopropoxy}methyl)phenyl]-2,3,4,5,6-pentahydroxyhexane-1-sulfonamido]"
8,< 100,"O=C(NCCCCN(CCO)S(=O)(=O)c1ccc(Cl)c(COC2(c3cnccc3-c3ccccc3OC3CC3)CC2)c1)NC[C@H](O)[C@@H](O)[C@H](O)[C@H](O)CO [Compound I-414, 1-{4-[N-(2-hydroxyethyl)4-chloro-3-({1-[4-(2-cyclopropoxyphenyl)pyridin-3-yl]cyclopropoxy}methyl)benzenesulfonamido]butyl}-3-[(2S,3R,4R,5R)-2,3,4,5,6-pentahydroxyhexyl]urea]"

# From patent US12084472B2 (Ardelyx, Inc., priority 2015, dated 2024)
